Data as given in patent US8598202B2, “Aryl-hydroxyethylamino-pyrimidines and triazines as modulators of fatty acid amide hydrolase” (Janssen Pharmaceutica NV, priority 2008, dated 2013).
Counter-ions that a name gives are not always drawn.

Legend:
FAAH = target: T1, FAAH (Homo sapiens, UniProt O00519); assay: Assay Method 1: FAAH assay, 3H-anandamide hydrolysis in homogenate of T84 cells or SK-N-MC cells transfected with human FAAH
T1 sequence (O00519 1-579): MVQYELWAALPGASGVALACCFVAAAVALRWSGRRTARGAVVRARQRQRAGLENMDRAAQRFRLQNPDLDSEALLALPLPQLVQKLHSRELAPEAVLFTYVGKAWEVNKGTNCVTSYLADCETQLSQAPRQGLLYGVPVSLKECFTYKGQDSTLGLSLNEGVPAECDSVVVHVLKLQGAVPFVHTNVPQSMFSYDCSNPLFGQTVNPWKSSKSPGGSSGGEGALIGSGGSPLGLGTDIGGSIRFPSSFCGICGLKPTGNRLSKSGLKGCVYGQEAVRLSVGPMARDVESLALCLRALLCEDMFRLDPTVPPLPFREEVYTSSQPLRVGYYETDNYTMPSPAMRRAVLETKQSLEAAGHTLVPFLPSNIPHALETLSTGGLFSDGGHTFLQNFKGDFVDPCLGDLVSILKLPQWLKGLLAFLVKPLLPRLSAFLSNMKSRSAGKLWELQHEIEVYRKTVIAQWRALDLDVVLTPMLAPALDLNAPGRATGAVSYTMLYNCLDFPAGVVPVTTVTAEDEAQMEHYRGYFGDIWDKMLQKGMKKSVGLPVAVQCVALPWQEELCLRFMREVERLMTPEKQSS

Rat FAAH-1 = target: T2, Rat FAAH-1 (Rattus norvegicus, UniProt P97612); assay: Assay Method 2: rat FAAH-1 assay, 3H-anandamide hydrolysis in homogenate of SK-N-MC cells transfected with rat FAAH
T2 sequence (P97612 1-579): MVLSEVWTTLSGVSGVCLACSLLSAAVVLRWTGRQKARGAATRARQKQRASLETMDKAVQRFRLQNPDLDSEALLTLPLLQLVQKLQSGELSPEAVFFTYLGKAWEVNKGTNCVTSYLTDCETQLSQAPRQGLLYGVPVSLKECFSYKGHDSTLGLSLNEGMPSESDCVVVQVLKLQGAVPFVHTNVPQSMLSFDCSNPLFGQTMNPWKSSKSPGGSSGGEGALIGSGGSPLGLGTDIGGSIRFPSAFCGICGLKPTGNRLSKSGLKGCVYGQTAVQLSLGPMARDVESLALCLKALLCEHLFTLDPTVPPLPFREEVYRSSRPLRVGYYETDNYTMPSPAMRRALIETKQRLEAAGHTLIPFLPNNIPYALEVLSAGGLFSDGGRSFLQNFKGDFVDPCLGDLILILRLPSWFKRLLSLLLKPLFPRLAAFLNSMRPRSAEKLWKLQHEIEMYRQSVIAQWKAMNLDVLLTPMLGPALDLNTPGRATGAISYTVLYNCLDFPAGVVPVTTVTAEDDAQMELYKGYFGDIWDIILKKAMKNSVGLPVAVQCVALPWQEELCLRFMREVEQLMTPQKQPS

Row | SMILES | IC50 (FAAH) | IC50 (Rat FAAH-1)
1 | N#Cc1cc(-c2cc(NC[C@H](O)c3ccccc3)ncn2)ccc1F [Example 89, 2-Fluoro-5-(6-{[(2R)-2-hydroxy-2-phenylethyl]amino}pyrimidin-4-yl)benzonitrile trifluoroacetic acid salt] | 1600 nM | 1400 nM
2 | Cn1ccc2cc(-c3cc(NC[C@H](O)c4ccccc4)ncn3)ccc21 [Example 90, (1R)-2-{[6-(1-Methyl-1H-indol-5-yl)pyrimidin-4-yl]amino}-1-phenylethanol trifluoroacetic acid salt] | 4 nM | 675 nM
3 | CC(C)Sc1ccc(-c2cc(NC[C@H](O)c3ccccc3)ncn2)cc1 [Example 91, (1R)-2-[(6-{4-[(1-Methylethyl)sulfanyl]phenyl}pyrimidin-4-yl)amino]-1-phenylethanol trifluoroacetic acid salt] | 3 nM | 57 nM
4 | O[C@@H](CNc1cc(-c2ccc(C(F)(F)F)c(Cl)c2)nc(C(F)(F)F)n1)c1ccccc1 [Example 93, (1R)-2-({6-[3-Chloro-4-(trifluoromethyl)phenyl]-2-(trifluoromethyl)pyrimidin-4-yl}amino)-1-phenylethanol trifluoroacetic acid salt] | 183 nM | 152 nM
5 | O[C@@H](CNc1cc(-c2ccc(Cl)c(Cl)c2)ncn1)c1ccccc1 [Example 95, (1R)-2-{[6-(3,4-Dichlorophenyl)-pyrimidin-4-yl]amino}-1-phenylethanol] | 18 nM | 66 nM
6 | O[C@@H](CNc1cc(-c2ccc3sccc3c2)ncn1)c1ccccc1 [Example 100, (1R)-2-{[6-(1-Benzothiophen-5-yl)pyrimidin-4-yl]amino}-1-phenylethanol trifluoroacetic acid salt] | 43 nM | 1400 nM
7 | CN(C)c1nc(NC[C@H](O)c2ccccc2)cc(-c2ccc(C(F)(F)F)c(Cl)c2)n1 [Example 101, (1R)-2-({6-[3-Chloro-4-(trifluoromethyl)phenyl]-2-(dimethylamino)pyrimidin-4-yl}amino)-1-phenylethanol trifluoroacetic acid salt] | 32 nM | 80 nM
8 | CSc1nc(NC[C@H](O)c2ccccc2)cc(-c2ccc(C(F)(F)F)c(F)c2)n1 [Example 102, (1R)-2-({6-[3-Fluoro-4-(trifluoromethyl)phenyl]-2-(methylsulfanyl)pyrimidin-4-yl}amino)-1-phenylethanol trifluoroacetic acid salt] | 17 nM | 50 nM
9 | O[C@@H](CNc1ncnc(-c2ccc(C(F)(F)F)cc2)n1)c1ccccc1 [Example 103, (1R)-1-Phenyl-2-({4-[4-(trifluoromethyl)phenyl]-1,3,5-triazin-2-yl}amino)ethanol trifluoroacetic acid salt] | 305 nM | 350 nM
10 | O[C@@H](CNc1ncnc(-c2ccc(C(F)(F)F)c(Cl)c2)n1)c1ccccc1 [Example 104, (1R)-2-({4-[3-Chloro-4-(trifluoromethyl)phenyl]-1,3,5-triazin-2-yl}amino)-1-phenylethanol trifluoroacetic acid salt] | 130 nM | 58 nM
11 | O[C@@H](CNc1cc(-c2cccc(C(F)(F)F)c2)ncn1)c1ccccc1 [Example 105, (1R)-1-Phenyl-2-({6-[3-(trifluoromethyl)phenyl]pyrimidin-4-yl}amino)ethanol] | 190 nM | 1000 nM
12 | O=[N+]([O-])c1ccc(C(O)CNc2cc(-c3ccc(OC(F)(F)F)cc3)ncn2)cc1 (centres unmarked) [Example 107, 1-(4-Nitrophenyl)-2-[(6-{4-[(trifluoromethyl)oxy]phenyl}pyrimidin-4-yl)amino]ethanol] | 240 nM | 320 nM
13 | OC(CNc1cc(-c2ccc(OC(F)(F)F)cc2)ncn1)c1ccc(C(F)(F)F)cc1 (centres unmarked) [Example 108, 2-[(6-{4-[(Trifluoromethyl)oxy]phenyl}pyrimidin-4-yl)amino]-1-[4-(trifluoromethyl)phenyl]ethanol] | 110 nM | 150 nM
14 | OC(CNc1cc(-c2ccc(OC(F)(F)F)cc2)ncn1)c1ccc(Cl)cc1 (centres unmarked) [Example 109, 1-(4-Chlorophenyl)-2-[(6-{4-[(trifluoromethyl)oxy]phenyl}pyrimidin-4-yl)amino]ethanol] | 150 nM | 42 nM
15 | COc1ccc(C(O)CNc2cc(-c3ccc(OC(F)(F)F)cc3)ncn2)cc1 (centres unmarked) [Example 111, 1-[4-(Methyloxy)phenyl]-2-[(6-{4-[(trifluoromethyl)oxy]phenyl}-pyrimidin-4-yl)amino]ethanol] | 122 nM | 220 nM
16 | COc1cc(C(O)CNc2cc(-c3ccc(OC(F)(F)F)cc3)ncn2)ccc1O (centres unmarked) [Example 112, 4-{1-Hydroxy-2-[(6-{4-[(trifluoromethyl)oxy]phenyl}pyrimidin-4-yl)amino]ethyl}-2-(methyloxy)phenol] | 524 nM | 760 nM
17 | OC(CNc1cc(-c2ccc(OC(F)(F)F)cc2)ncn1)c1ccc(F)cc1 (centres unmarked) [Example 113, 1-(4-Fluorophenyl)-2-[(6-{4-[(trifluoromethyl)oxy]phenyl}pyrimidin-4-yl)amino]ethanol] | 18 nM | 41 nM
18 | OC(CNc1cc(-c2ccc(OC(F)(F)F)cc2)ncn1)c1ccc(Cl)c(Cl)c1 (centres unmarked) [Example 114, 1-(3,4-Dichlorophenyl)-2-[(6-{4-[(trifluoromethyl)oxy]phenyl}-pyrimidin-4-yl)amino]ethanol] | 46 nM | 43 nM
19 | OC(CNc1cc(-c2ccc(OC(F)(F)F)cc2)ncn1)c1ccccc1Cl (centres unmarked) [Example 115, 1-(2-Chlorophenyl)-2-[(6-{4-[(trifluoromethyl)oxy]phenyl}pyrimidin-4-yl)amino]ethanol] | 140 nM | 205 nM
20 | OC(CNc1cc(-c2ccc(OC(F)(F)F)cc2)ncn1)c1cccc(Cl)c1 (centres unmarked) [Example 116, 1-(3-Chlorophenyl)-2-[(6-{4-[(trifluoromethyl)oxy]phenyl}pyrimidin-4-yl)amino]ethanol] | 90 nM | 110 nM
21 | COc1cccc(C(O)CNc2cc(-c3ccc(OC(F)(F)F)cc3)ncn2)c1 (centres unmarked) [Example 117] | 32 nM | 22 nM
22 | COc1ccccc1C(O)CNc1cc(-c2ccc(OC(F)(F)F)cc2)ncn1 (centres unmarked) [Example 118, 1-[2-(Methyloxy)phenyl]-2-[(6-{4-[(trifluoromethyl)oxy]phenyl}-pyrimidin-4-yl)amino]ethanol] | 93 nM | > 10000 nM
23 | C[C@H](Nc1cc(-c2ccc(OC(F)(F)F)cc2)ncn1)[C@H](O)c1ccccc1 [Example 119, (1R,2S)-1-Phenyl-2-[(6-{4-[(trifluoromethyl)oxy]phenyl}pyrimidin-4-yl)amino]propan-1-ol] | 17 nM | 55 nM
24 | C[C@H]([C@H](O)c1ccccc1)N(C)c1cc(-c2ccc(OC(F)(F)F)cc2)ncn1 [Example 120, (1R,2R)-2-[Methyl(6-{4-[(trifluoromethyl)oxy]phenyl}pyrimidin-4-yl)amino]-1-phenylpropan-1-ol] | > 10000 nM | > 10000 nM
25 | C[C@@H]([C@H](O)c1ccccc1)N(C)c1cc(-c2ccc(OC(F)(F)F)cc2)ncn1 [Example 121, (1R,2S)-2-[Methyl(6-{4-[(trifluoromethyl)oxy]phenyl}pyrimidin-4-yl)amino]-1-phenylpropan-1-ol] | 580 nM | 3000 nM
26 | OC(CNc1cc(-c2ccc(OC(F)(F)F)cc2)ncn1)c1ccc2c(c1)OC(F)(F)O2 (centres unmarked) [Example 122, 1-(2,2-Difluoro-1,3-benzodioxol-5-yl)-2-[(6-{4-[(trifluoromethyl)oxy]phenyl}pyrimidin-4-yl)amino]ethanol] | 13 nM | 19 nM
27 | OC(CNc1cc(-c2ccc(OC(F)(F)F)cc2)ncn1)c1cccnc1 (centres unmarked) [Example 124, 1-Pyridin-3-yl-2-[(6-{4-[(trifluoromethyl)oxy]phenyl}pyrimidin-4-yl)amino]ethanol] | 800 nM | 4000 nM
28 | OC(CNc1cc(-c2ccc(OC(F)(F)F)cc2)ncn1)c1ccncc1 (centres unmarked) [Example 125, 1-Pyridin-4-yl-2-[(6-{4-[(trifluoromethyl)oxy]phenyl}pyrimidin-4-yl)amino]ethanol] | 890 nM | 5000 nM
